Laboratory results published in paper PMC3501490 (PLoS ONE, 2012).
Where two headings read alike, the source gives them in different places. Where no end group is shown, it is not given here. [ ]: non-standard residue; d: D form. pY = N[C@@H](Cc1ccc(OP(=O)(O)O)cc1)C(=O)O

What was measured:
[1] = tested on: washed human platelets (collagen); test: Light transmission aggregometry of TAT-peptide-loaded platelets, collagen; type: cell-based; settings: vehicle (DMSO) control; light transmission aggregometry
Experimental: (§1) Whole blood was taken from healthy volunteers and collected into 50 ml syringes containing 5 ml acid citrate-dextrose (ACD) in accordance with procedures approved by the Local Research Ethics Committee (Ref: 07/Q1603/17). Platelet-rich plasma (PRP) was isolated by centrifugation at 200 g for 10 minutes at room temperature. PRP was pooled and 10 µg PGI2 was added before centrifugation at 1000 g for 10 minutes at room temperature. Platelets were resuspended in 1 ml Tyrodes buffer (134 mM NaCl, 0.34 mM Na2HPO4, 2.9 mM KCl, 12 mM NaHCO3, 20 mM HEPES, 5 mM glucose, 1 mM MgCl2, pH 7.3) pre-warmed to 30°C and 150 µl ACD. The volume was adjusted to 25 ml with Tyrodes buffer, followed by 3 ml ACD and 1.25 µg PGI2. Cells were centrifuged at 1000 g for 10 minutes at room temperature and the resultant cell pellet was resuspended in 1 ml pre-warmed Tyrodes buffer before adjusting the volume to a final cell density of 4×10^8 cells/ml (aggregations) or 2×10^9 cells/ml (peptide pull downs). Where appropriate, 1 mM EGTA, 10 µM indomethacin and 2 U/ml apyrase were added to inhibit aggregations (referred to as non-aggregating conditions).
(§2) Fluorescein-labelled, TAT-G6B-b peptides were synthesised by Peptide Protein Research Ltd (Hampshire, U.K.). Peptides were either unphosphorylated, or phosphorylated at both ITIMs as follows: Dual phosphorylated peptide – FLUO- […]*[…]*AVVV or unphosphorylated control peptide (lacking tyrosine phosphorylation) - FLUO- […]. TAT sequences are underlined and phosphorylated tyrosines marked with an asterisk. Peptides were loaded into washed platelets by incubation with 10 µM peptide for 15 minutes at 30°C, after which they were assessed by light transmission aggregometry. Peptide loading conditions were optimised and verified by flow cytometry.
(§3) Washed human platelets were loaded with TAT-G6B-b peptides (either dual phosphorylated or unphosphorylated) and changes in CRP efficacy determined by light transmission aggregometry. […] Thrombin-mediated activation was unaffected (data not shown). […] Peptide loading was verified by flow cytometry (Figure 9C and 9D.

[2] = tested on: washed human platelets (CRP); test: Light transmission aggregometry of TAT-peptide-loaded platelets, CRP; type: cell-based; settings: vehicle (DMSO) control; light transmission aggregometry
Experimental: as §1, §2, §3

[3] = tested on: G6B-b dual phosphopeptide; test: SPR (BIAcore 3000) of SHP-1/SHP-2 tandem SH2 domains over immobilised G6B-b phosphopeptide; type: binding, human; settings: for Koff / Kd: HBS pH 7.4, 37°C, 50 µl/min; for Koff: Prism 5; for Kd: KD = Koff/Kon
Experimental: (§4) Experiments were conducted on a BIAcore™ 3000 in HBS buffer (0.01 M HEPES, pH 7.4, containing 0.15 M NaCl, 3 mM EDTA, and 0.005% v/v P-20, GE Life Sciences, Amersham, UK). Streptavidin was coupled to a research grade CM5 chip (GE Life Sciences, Amersham, UK) as previously described, [13]. Protein-peptide interactions were carried out a rate of 10 µl/min at a constant temperature of 37°C to more accurately reflect physiological conditions. Biotinylated peptides were bound to the streptavidin-coated CM5 chips at 37°C to between 25–50 RU [14]. Purified monomeric SH2 domains were passed over the immobilised peptides at a range of concentrations. Anti-phosphotyrosine monoclonal antibody (Sigma, Poole, U.K.) was passed over the chip to saturation at the end of each experiment to verify peptide coverage on the chip. Binding affinities for the single ITIM/ITSM peptides were determined by plotting equilibrium binding measurements (RU) against SH2 domain protein concentration (Origin 8, OriginLab, MA, USA). KD was defined as the concentration of SH2 protein that gave half maximal binding to the peptide. For the 60-mer peptides, SH2 domains were passed over the chip surface at 50 µl/min. KD was determined as Koff/Kon, which were determined using both GraphPad Prism 5.0 (GraphPad, La Jolla, CA, USA) and BIAevaluation Software (GE Life Sciences, Amersham,UK).
Previous studies have shown that using single phosphomotifs (isolated from sequences in which they may exist in tandem) and single SH2 domains can be misleading, [16]. We, therefore, assessed phosphatase-G6B-b interactions in more detail using the tandem SH2 domains of both SHP-2 (Figure 4A) and SHP-1 (Figure 4B). We kinetically determined the binding affinity (KD = koff/kon) by SPR at physiological temperatures.

[4] = tested on: endogenous G6B-b; test: Pull down of endogenous G6B-b from platelet lysate with purified SH2 domains; type: binding; settings: washed human platelet lysates activated with CRP or thrombin
Experimental: These proteins were expressed in BL21(DE3) cells (Invitrogen) induced with 1 mM IPTG for 4 hours at 37°C. Bacteria were pelleted and washed in PBS/0.5 M NaCl prior to sonication in PBS/0.5 M NaCl, in the presence of protease inhibitor cocktail (Complete, EDTA-free, Roche). Soluble and insoluble fractions were separated by centrifugation at 30,000 g for 60 minutes. Soluble fractions containing tagged proteins were incubated for 1 hour at 4°C with end-over-end mixing in the presence of washed Ni-Sepharose (GE Lifesceinces, Little Chalfont, U.K.) supplemented with 40 mM imidazole or Amylose resin (NEB, Herts, U.K). […]
Based on this study, the N-terminal SH2 domains of both SHP-1 and SHP-2 should preferentially bind to the ITIM (central pY at position 211) while the C-terminal domains should associate with the ITSM (pY at position 237). […] The N-terminal SH2 domain of SHP-1 was insoluble and it was not possible to purify sufficient quantities for binding studies. […]
(A) Peptide associated material was isolated from pre-cleared lysates separated on 4–12% NuPage Bis-Tris gels; proteins identified by Western Blotting (representative blots, n = 3). […] Bound material was separated from unbound material by SDS-PAGE and quantified (n = 3, SEM, ** denotes p<0.01, * denotes p<0.05). […]

[5] = tested on: G6B-b tyrosine phosphorylation; test: G6B-b tyrosine phosphorylation in washed human platelets (4G10 staining); type: cell-based; settings: for G6B-b tyrosine phosphorylation: 1 µg/ml CRP, 5 minutes, 4G10 staining, n = 4; for state of G6B-b phosphorylation: PP2 5 µM, PP3 5 µM or pervanadate, 10 minutes
Experimental: One microgram of antibody was bound to 10 µl of Protein A-sepharose (20 µl of a 50% slurry), in a final volume of 100 µl PBS, by incubation on a rotating wheel for 90 minutes at 4°C. Washed human platelets were incubated with either Tyrodes, 5 µM PP2, 5 µM PP3 or pervanadate for 10 minutes, after which they were pelleted and lysed in DP lysis buffer (20 mM Tris pH 7.5, 150 mM NaCl, 5 mM NaOV4, 1× Complete Protease Inhibitor (Roche) and 5% w/v n-Dodecyl-β-D-maltoside (Calbiochem)) such that each IP sample received 4×10^8 platelets in a final volume of 100 µl DP lysis buffer. Samples were mixed on a rotating wheel at 4°C for 1 hour. Samples were washed once in 200 µl DP lysis buffer and twice in 1 ml PBS prior to boiling in Laemmli buffer for 5 minutes.
We wanted to determine whether SHP-2 could associate with the receptor in human platelets as this interaction could relate to receptor function and regulation of GPVI signalling. […] In the absence of receptor agonists, we carried out co-immunoprecipitation experiments in platelet lysates treated with the SFK inhibitor, PP2, its non-active analogue, PP3, or the tyrosine phosphatase inhibitor, pervanadate. […] Under these conditions, isolation of […] by immunoprecipitation was robust (Figure 1B, top panel).
(A) Washed human platelets were incubated under stirring, but non-aggregating, conditions with the SFK inhibitor, PP2, or DMSO, prior to the addition of 1 µg/ml CRP or Tyrodes buffer. Samples were collected after 5 minutes. Tyrosine phosphorylation was detected by 4G10 staining (top panel, n = 4). […] (B) G6B-b co-immunoprecipitates with […] in pervanadate-treated washed human platelets.

[6] = target: T1, N-terminal SH2 domain of SHP-2 (Homo sapiens, UniProt Q06124); test: SPR (BIAcore 3000), single N-terminal SH2 domain of SHP-2; type: binding; settings: HBS pH 7.4, 37°C, 10 µl/min
T1 construct: SHP-2 (N)SH2 (His-tag) (OMC #3912); His-tag; host or cells: E. coli BL21(DE3)
T1 sequence (Q06124 6-102 limits assumed): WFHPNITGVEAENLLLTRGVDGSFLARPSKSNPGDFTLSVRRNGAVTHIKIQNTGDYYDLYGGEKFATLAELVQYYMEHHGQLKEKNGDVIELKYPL
Experimental: These proteins were expressed in BL21(DE3) cells (Invitrogen) induced with 1 mM IPTG for 4 hours at 37°C. Bacteria were pelleted and washed in PBS/0.5 M NaCl prior to sonication in PBS/0.5 M NaCl, in the presence of protease inhibitor cocktail (Complete, EDTA-free, Roche). Soluble and insoluble fractions were separated by centrifugation at 30,000 g for 60 minutes. Soluble fractions containing tagged proteins were incubated for 1 hour at 4°C with end-over-end mixing in the presence of washed Ni-Sepharose (GE Lifesceinces, Little Chalfont, U.K.) supplemented with 40 mM imidazole or Amylose resin (NEB, Herts, U.K). Proteins were eluted according to the manufacturer's instructions and purified by size exclusion chromatography on an AKTApurifier (GE Lifesciences, Little Chalfont, U.K).
as §4, with “For the 60-mer peptides, SH2 domains were passed over the chip surface at 50 µl/min.” left out

collagen [reference compound]
EC50 of collagen, vehicle control platelets [1]: 0.4 µg/mL

collagen-related peptide [CRP, reference compound]
EC50 of CRP, vehicle control platelets [2]: 0.4 µg/mL

SHP-2: SHP-2 (N+C)SH2 domains, recombinant
fold higher binding affinity of SHP-2 tandem SH2 domains than single N(SH2) domain ([3]; SPR, dual phosphopeptide): approximately 200 fold | Koff ([3]; tandem SH2 domains 0.1 nM): 0.0720 s⁻¹ | Kd ([3]; tandem SH2 domains 0.1 nM): 0.474 nM | Koff ([3]; tandem SH2 domains 1 nM): 0.1660 s⁻¹ | Kd ([3]; tandem SH2 domains 1 nM): 0.624 nM | Koff ([3]; tandem SH2 domains 10 nM): 0.0206 s⁻¹ | Kd ([3]; tandem SH2 domains 10 nM): 0.145 nM | Koff ([3]; tandem SH2 domains 100 nM): 0.0144 s⁻¹ | Kd ([3]; tandem SH2 domains 100 nM): 0.528 nM | Koff ([3]; tandem SH2 domains 1000 nM): 0.0106 s⁻¹ | Kd ([3]; tandem SH2 domains 1000 nM): 0.634 nM | isolation of endogenous G6B-b [4]: able to isolate G6B-b from platelet lysate

Nc1ncnc2c1cnn2-c1ccccc1 [PP3]
G6B-b tyrosine phosphorylation [5]: no effect on tyrosine phosphorylation | state of G6B-b phosphorylation [5]: partial/sub-maximal

SHP-1: SHP-1 (N+C)SH2 domains, recombinant
Koff ([3]; tandem SH2 domains 0.1 nM): 0.0104 s⁻¹ | Kd ([3]; tandem SH2 domains 0.1 nM): 43.3 nM | Koff ([3]; tandem SH2 domains 1 nM): 0.01106 s⁻¹ | Kd ([3]; tandem SH2 domains 1 nM): 42.5 nM | Koff ([3]; tandem SH2 domains 10 nM): 0.01141 s⁻¹ | Kd ([3]; tandem SH2 domains 10 nM): 20.3 nM | Koff ([3]; tandem SH2 domains 100 nM): 0.01025 s⁻¹ | Kd ([3]; tandem SH2 domains 100 nM): 32 nM | Koff ([3]; tandem SH2 domains 1000 nM): 0.00892 s⁻¹ | isolation of endogenous G6B-b [4]: able to isolate endogenous G6B-b from platelet lysate

CC(C)(C)n1nc(-c2ccc(Cl)cc2)c2c(N)ncnc21 [PP2]
G6B-b tyrosine phosphorylation [5]: reduced the G6B-b tyrosine phosphorylation in response to CRP | state of G6B-b phosphorylation [5]: non-phosphorylation

PLVKTEPQRPVKEEEPKIPGDLDQEPSLLYADLDHLALSRPRRLSTADPADASTI[pY]AVVV [pY237]
Kd ([6]; read-out: KD, estimated by fixing maximum binding): 10000 nM

PLVKTEPQRPVKEEEPKIPGDLDQEPSLL[pY]ADLDHLALSRPRRLSTADPADASTIYAVVV [pY211]
Kd ([6]; equilibrium binding, single site fitting, read-out: KD): 110 nM

pervanadate
state of G6B-b phosphorylation [5]: maximal phosphorylation
